Test results taken from article PMC8776995 (Frontiers in Chemistry, 2022).
Values joined by “and” are separate entries in the source; they are usually repeats but may differ in a detail not shown here. Equal entries are not always repeated.

Assays:
wild-type EGFR = wild-type EGFR (Homo sapiens, UniProt P00533); experiment: EGFR kinase assay (ELISA); conditions: for A450: raw ELISA absorbance
H1975 cells = experiment: CCK-8 antiproliferation assay, H1975; conditions: for Inhibitory efficacy: H1975 cells
A549 cells = experiment: CCK-8 antiproliferation assay, A549; conditions: for Inhibitory efficacy: A549 cells
PC-9 cells = experiment: CCK-8 antiproliferation assay, PC-9; conditions: for Inhibitory efficacy: single repeats (Repeat 1-3), given as fraction
H460 cells = experiment: CCK-8 antiproliferation assay, H460; conditions: for Inhibitory efficacy: H460 cells
[1] = 1uM, given as fraction, Repeat 1-3
[2] = 2uM, given as fraction, Repeat 1-3
[3] = 4uM, given as fraction, Repeat 1-3
[4] = 8uM, given as fraction, Repeat 1-3
[5] = 16uM, given as fraction, Repeat 1-3

Chain of wild-type EGFR (P00533 25-1210): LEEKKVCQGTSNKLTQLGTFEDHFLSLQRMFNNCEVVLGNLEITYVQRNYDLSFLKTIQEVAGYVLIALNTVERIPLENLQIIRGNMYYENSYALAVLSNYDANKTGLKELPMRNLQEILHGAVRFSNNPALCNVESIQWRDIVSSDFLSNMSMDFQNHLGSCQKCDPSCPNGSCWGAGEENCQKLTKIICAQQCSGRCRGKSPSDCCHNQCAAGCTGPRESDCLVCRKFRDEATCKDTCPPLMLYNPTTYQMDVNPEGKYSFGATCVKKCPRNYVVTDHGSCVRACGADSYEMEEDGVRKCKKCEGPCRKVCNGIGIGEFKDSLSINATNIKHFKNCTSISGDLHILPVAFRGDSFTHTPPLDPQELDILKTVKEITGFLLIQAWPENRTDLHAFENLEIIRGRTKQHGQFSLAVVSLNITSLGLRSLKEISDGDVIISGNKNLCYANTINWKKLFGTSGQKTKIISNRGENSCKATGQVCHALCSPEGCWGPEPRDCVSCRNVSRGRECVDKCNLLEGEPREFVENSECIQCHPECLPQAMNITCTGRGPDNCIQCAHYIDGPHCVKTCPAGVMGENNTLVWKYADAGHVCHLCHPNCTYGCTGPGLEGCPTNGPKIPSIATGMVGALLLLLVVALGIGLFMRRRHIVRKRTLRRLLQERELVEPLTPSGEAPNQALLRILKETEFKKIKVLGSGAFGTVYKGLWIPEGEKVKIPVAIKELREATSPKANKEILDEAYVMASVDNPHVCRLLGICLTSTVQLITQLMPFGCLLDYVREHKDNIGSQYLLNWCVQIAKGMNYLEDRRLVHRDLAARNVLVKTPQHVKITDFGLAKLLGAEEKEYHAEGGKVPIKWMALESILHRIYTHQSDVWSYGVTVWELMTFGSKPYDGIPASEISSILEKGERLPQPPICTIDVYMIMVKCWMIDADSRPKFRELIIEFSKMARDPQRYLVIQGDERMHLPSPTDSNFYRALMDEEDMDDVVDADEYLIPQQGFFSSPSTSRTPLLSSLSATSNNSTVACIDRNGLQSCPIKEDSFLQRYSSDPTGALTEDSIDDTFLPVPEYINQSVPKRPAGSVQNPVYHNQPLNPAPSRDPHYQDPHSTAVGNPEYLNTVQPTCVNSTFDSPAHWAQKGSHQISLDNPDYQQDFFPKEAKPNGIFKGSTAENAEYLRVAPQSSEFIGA

- inhibition at 100 fM (wild-type EGFR; concentration 0.0001 nM (reference for normalisation), one value per replicate column): 0%
- inhibition at 30 pM (wild-type EGFR; concentration 0.03 nM, one value per replicate column): 5.9%
- Inhibition (wild-type EGFR; concentration 0.03 nM, one value per replicate column, 3e-05 µM): 7.547
- inhibition at 0.0003 µM (wild-type EGFR; concentration 0.3 nM, one value per replicate column): 9.63%
- Inhibition (wild-type EGFR; concentration 0.3 nM, one value per replicate column, 0.0003 µM): 10.2916
- inhibition at 0.003 µM (wild-type EGFR; concentration 3 nM, one value per replicate column): 16.9%
- Inhibition (wild-type EGFR; concentration 3 nM, one value per replicate column, 0.003 µM): 12.693
- inhibition at 0.03 µM (wild-type EGFR; concentration 30 nM, one value per replicate column): 21.1%
- Inhibition (wild-type EGFR; concentration 30 nM, one value per replicate column, 0.03 µM): 13.2075
- inhibition at 0.3 µM (wild-type EGFR; concentration 300 nM, one value per replicate column): 25.3%
- Inhibition (wild-type EGFR; concentration 300 nM, one value per replicate column, 0.3 µM): 17.1527
- inhibition at 3 µM (wild-type EGFR; concentration 3000 nM, one value per replicate column): 26.1%
- Inhibition (wild-type EGFR; concentration 3000 nM, one value per replicate column, 3 µM): 22.2985
- inhibition at 30 µM (wild-type EGFR; concentration 30000 nM, one value per replicate column): 68.9%
- Inhibition (wild-type EGFR; concentration 30000 nM, one value per replicate column, 30 µM): 69.1252
- A450 (wild-type EGFR; concentration 0.0001 nM): 0.879 and 0.798
- A450 (wild-type EGFR; concentration 0.03 nM): 0.841 and 0.754
- A450 (wild-type EGFR; concentration 0.3 nM): 0.817 and 0.738
- A450 (wild-type EGFR; concentration 3 nM): 0.77 and 0.724
- A450 (wild-type EGFR; concentration 30 nM): 0.743 and 0.721
- A450 (wild-type EGFR; concentration 300 nM): 0.716 and 0.698
- A450 (wild-type EGFR; concentration 3000 nM): 0.711 and 0.668
- A450 (wild-type EGFR; concentration 30000 nM): 0.435 and 0.395
- IC50 (wild-type EGFR; read-out: IC50 (μM) EGFR, ELISA, 3 μmol/L ATP): 12.4 µM
- melting point: 100 to 103 °C
- IC50 (H1975 cells; Homo sapiens, NCI-H1975, 48 h, read-out: IC50 (μM) H1975, CCK-8, 48 h, average ± SD of three independent experiments): 10 ± 0.69 µM
- IC50 (A549 cells; Homo sapiens, A549, 48 h, read-out: IC50 (μM) A549, CCK-8, 48 h, average ± SD of three independent experiments): 2.53 ± 0.2 µM
- IC50 (PC-9 cells; Homo sapiens, PC-9, 48 h, read-out: IC50 (μM) PC-9): 15.2 ± 0.75 µM
- IC50 (H460 cells; Homo sapiens, NCI-H460, 48 h, read-out: IC50 (μM) H460, CCK-8, 48 h, average ± SD of three independent experiments): 4.3 ± 0.62 µM
SMILES: COCCOc1cc2ncnc(Nc3cccc(-c4cn(-c5ccc(C)cc5O)nn4)c3)c2cc1OCCOC [e18, 2-(4-{3-[6,7-Bis-(2-methoxy-ethoxy)-quinazolin-4-ylamino]-phenyl}-[1,2,3]triazol-1-yl)-5-methyl-phenol]
- Inhibitory efficacy (H1975 cells; [1]): 0.2067 and 0.1552
- Inhibitory efficacy (H1975 cells; [2]): 0.2381 and 0.2095
- Inhibitory efficacy (H1975 cells; [3]): 0.3038 and 0.341
- Inhibitory efficacy (H1975 cells; [4]): 0.4524 and 0.4681
- Inhibitory efficacy (H1975 cells; [5]): 0.6095 and 0.6024
- inhibition at 1 µM (H1975 cells; Homo sapiens, NCI-H1975, read-out: Inhibitory efficacy, H1975 cells, 1uM, given as fraction, Repeat 1-3): 16.5%
- inhibition at 2 µM (H1975 cells; Homo sapiens, NCI-H1975, read-out: Inhibitory efficacy, H1975 cells, 2uM, given as fraction, Repeat 1-3): 26.2%
- inhibition at 4 µM (H1975 cells; Homo sapiens, NCI-H1975, read-out: Inhibitory efficacy, H1975 cells, 4uM, given as fraction, Repeat 1-3): 33.4%
- inhibition at 8 µM (H1975 cells; Homo sapiens, NCI-H1975, read-out: Inhibitory efficacy, H1975 cells, 8uM, given as fraction, Repeat 1-3): 46.7%
- inhibition at 16 µM (H1975 cells; Homo sapiens, NCI-H1975, read-out: Inhibitory efficacy, H1975 cells, 16uM, given as fraction, Repeat 1-3): 55.4%
- Inhibitory efficacy (A549 cells; [1]): 0.3234 and 0.3188
- Inhibitory efficacy (A549 cells; [2]): 0.4627 and 0.499
- Inhibitory efficacy (A549 cells; [3]): 0.5875 and 0.5347
- Inhibitory efficacy (A549 cells; [4]): 0.7578 and 0.7459
- Inhibitory efficacy (A549 cells; [5]): 0.8733 and 0.8713
- inhibition at 1 µM (A549 cells; Homo sapiens, A549, read-out: Inhibitory efficacy, A549 cells, 1uM, given as fraction, Repeat 1-3): 24.6%
- inhibition at 2 µM (A549 cells; Homo sapiens, A549, read-out: Inhibitory efficacy, A549 cells, 2uM, given as fraction, Repeat 1-3): 37.2%
- inhibition at 4 µM (A549 cells; Homo sapiens, A549, read-out: Inhibitory efficacy, A549 cells, 4uM, given as fraction, Repeat 1-3): 66.7%
- inhibition at 8 µM (A549 cells; Homo sapiens, A549, read-out: Inhibitory efficacy, A549 cells, 8uM, given as fraction, Repeat 1-3): 73.2%
- inhibition at 16 µM (A549 cells; Homo sapiens, A549, read-out: Inhibitory efficacy, A549 cells, 16uM, given as fraction, Repeat 1-3): 88.9%
- inhibition at 8 µM (PC-9 cells; Homo sapiens, PC-9, read-out: Inhibitory efficacy, PC-9, 8uM, single repeats (Repeat 1-3), given as fraction): 25.2%
- inhibition at 16 µM (PC-9 cells; Homo sapiens, PC-9, read-out: Inhibitory efficacy, PC-9, 16uM, single repeats (Repeat 1-3), given as fraction): 48.5%
- Inhibitory efficacy (PC-9 cells; PC-9, 8uM, 8 µM): 0.3051 and 0.2654
- Inhibitory efficacy (PC-9 cells; PC-9, 16uM, 16 µM): 0.5238 and 0.4787
- Inhibitory efficacy (H460 cells; [1]): 0.2332 and 0.2742
- Inhibitory efficacy (H460 cells; [2]): 0.4443 and 0.3282
- Inhibitory efficacy (H460 cells; [3]): 0.5163 and 0.5814
- Inhibitory efficacy (H460 cells; [4]): 0.5774 and 0.6654
- Inhibitory efficacy (H460 cells; [5]): 0.7445 and 0.6414
- inhibition at 1 µM (H460 cells; Homo sapiens, NCI-H460, read-out: Inhibitory efficacy, H460 cells, 1uM, given as fraction, Repeat 1-3): 17.1%
- inhibition at 2 µM (H460 cells; Homo sapiens, NCI-H460, read-out: Inhibitory efficacy, H460 cells, 2uM, given as fraction, Repeat 1-3): 27.5%
- inhibition at 4 µM (H460 cells; Homo sapiens, NCI-H460, read-out: Inhibitory efficacy, H460 cells, 4uM, given as fraction, Repeat 1-3): 55.5%
- inhibition at 8 µM (H460 cells; Homo sapiens, NCI-H460, read-out: Inhibitory efficacy, H460 cells, 8uM, given as fraction, Repeat 1-3): 55%
- inhibition at 16 µM (H460 cells; Homo sapiens, NCI-H460, read-out: Inhibitory efficacy, H460 cells, 16uM, given as fraction, Repeat 1-3): 72.3%
